The values below come from patent EP1988171A1, “SUBSTANCE FKI-2342 AND PROCESS FOR PRODUCTION THEREOF” (THE KITASATO INSTITUTE, priority 2006, dated 2007).

A word on the IC50: it is the concentration that gives 50% inhibition.

Values after ≈ are worked out from the molar mass of the structure shown. Where two headings read alike, the source gives them in different places.

The test system of one experiment is HCT-116 cells. In words: Inhibitory action for G2 checkpoint using HCT-116 cells (cell cycle by FACS). The class given is cell-based, human. Particulars: for IC50: Homo sapiens, 24 hours; for Selectivity IC50(col) /IC50(bleo): Table 2. As for the experimental part:
(§1) An assay method of G2 arrest activity with treatment of anticancer agent using cancer cells is performed according to the method of Suganuma et al. (Cancer Research, […]: 5887-5891, 1999).
A cell suspension (15 ml) of HCT-116 cells derived from human colon cancer, adjusted to 1.5 × 10^5 cells/ml with McCoy's medium, was cultured in McCoy's 5A medium (a medium adding an inactivated fetal bovine serum (FBS) […] and a mixture 5 ml of penicillin (10,000 units/ml) and streptomycin (10 mg/ml) in McCoy's 5A (Invitrogen Inc.) 500 ml) in a 75-cm^3 culture flask (Corning Corp., the U.S.) under the atmosphere of […] at 37°C, and a subinoculation was performed after 3 days.
HCT-116 cells (500 µl) adjusted to give 1.5×10^5 cells/ml. were added into each well of a 24-well microplate (IWAKI Co., Japan) and incubated at 37°C for 24 hours. Thereafter, the medium was removed and 250 µl of 27 µM bleomycin or that of 0.5 µM colcicine prepared with McCoy's 5A medium were added in each well, and FKI-2342A substance - FKI-2342F substance dissolved in 0.5% DMSO, each 250 µl, were added (final concentration: bleomycin 13 µM, colchicine 0.25 µM, and 0.25% DMSO). The plate was incubated under […] at 37°C for 24 hours. After the incubation, the supernatant was recovered in 1.5 ml Eppendorf tube and stored on ice. Cells on the plate were detached by adding trypsin-EDTA solution (150 µl) and culturing at 37°C for 10 minutes. Immediately after the cells were detached, 300 µl of the medium were added to denature the trypsin, and were mixed with the supernatant which was stored on the ice. The mixture was centrifuged at 1,000 rpm for 10 minutes, and the supernatant was removed by using the aspirator, then Krishan's reagent (200 µl) was added thereto, and after allowing to stand for 1 hour, measurement was performed by using FACS.
Measurement of cell cycle was performed by measuring 10,000 cells using FACS Caliber (Becton Dickinson Inc.) to calculate ratio of cells in sub G1, G1, S, and G2/M phase by using analytical software cell Quest.
Experimental results in relation to FKI-2342A substance - F substance were obtained by using the index of the G2/M phase cell. A concentration of substance, in which the number of cells at G2 phase is reduced to 50% when the number of cells arrested at G2 phase by treatment with bleomycin is' set as 100%, is calculated as IC50 (bleo), and similarly a concentration of substance, in which the number of cells at M phase is reduced to 50%, is calculated as IC50 (col), and the specificity to the G2 phase cells as the selectivity is shown in Table'2.

The subject of a further experiment is Jurkat cells. In words: Inhibitory action for G2 checkpoint using Jurkat cells (cell cycle by FACS). Particulars: for IC50: Homo sapiens; for selectivity: specificity to the G2 phase cells, Table 1; for differences between both concentrations: IC50 (col) versus IC50 (bleo). The class given is cell-based, human. Here is the method:
as §1
Jurkat cells derived from human lymphoma were cultured in RPMI 1640 medium (a medium adding an inactivated fetal bovine serum (JRH Bioscience Inc.) 50 ml and a mixture 50 ml of penicillin (10,000 units/ml) and streptomycin (10 mg/ml) (Invitrogen Inc.) in RPMI 1640 (IWAKI Co., Ltd.) 500 ml) by using a 75 cm^3 culture flask. After centrifugation of the Jurkat cells at 1, 000 rpm for 10 minutes, the supernatant was removed by using aspirator to adjust the number of cells to be 5 × 10^5 cells/ml with addition of RPMI 1640 medium. Bleomycin (Nippon Kayaku Co., Ltd.) or colchicines (Sigma Inc.) was added to be the final concentration of 40 µM or 0.5 µM, respectively, into the cell suspension. The suspension was added into each well of 96 well multiplate (Corning Corp., the U.S.), which was previously air dried after adding FKI-2342A - F substances 200 µl (1 × 10^5 cells/well) in each well, and incubated at 37°C for 20 hours.
Cells after culturing for 20 hours were centrifuged at 1,000 rpm for 10 minutes, and the supernatant was removed by using aspirator. Krishan's reagent (trisodium citrate (Wako Pure Chemical Industries, Ltd.) […], IGEPALCA-630 (Sigma Inc.) 1.5 ml, ribonuclease A (Sigma Inc.) 10 mg and propydium iodide (Sigma Inc.) 25 mg dissolved in sterilized water 50.0 ml) […] was added to each well. The well was covered with aluminum foil for light shielding and allowed to stand at room temperature for 1 hour with gently shaking by the shaker to perform DNA staining. Measurement of cell cycle was performed by measuring 10,000 cells using FACS Caliber (Becton Dickinson Inc.) to calculate ratio of cells in sub G1, G1, S, and G2/M phase by using analytical software Ce 11 Quest.
Experimental results in relation to FKI-2342A substance - F substance were obtained by using the index of the G2/M phase cell. A concentration of substance wherein the number of cells at G2 phase is reduced to 50% when the number of cells arrested at G2 phase by treatment with bleomycin is set as 100%, is calculated as IC50 (bleo), and similarly a concentration of substance wherein the number of cells at M phase is reduced to 50% is calculated as IC50 (col), and the specificity to the G2 phase cells as the selectivity is shown in Table 1.
For orientation: A flow cytometer gives signals particle by particle.

[1] abbreviates: cells arrested at G2 phase by bleomycin 13 µM reduced to 50%, read-out: IC50 bleomycin.
Setting [2] is: cells at M phase (colchicine 0.25 µM) reduced to 50%, read-out: IC50 colchicine.
Setting [3] is: cells arrested at G2 phase by bleomycin 40 µM reduced to 50%, 20 hours, Table 1, read-out: IC50 bleomycin.
Setting [4] is: cells at M phase (colchicine 0.5 µM) reduced to 50%, 20 hours, Table 1, read-out: IC50 colchicine.
[5] abbreviates: cells arrested at G2 phase by bleomycin reduced to 50%, read-out: IC50 (bleo).
Setting [6] is: cells at M phase (colchicine) reduced to 50%, read-out: IC50 (col).

As for `C=C(C(=O)O)C(CCCC(=O)OC)C(=O)OC` (centres unmarked) [A], the IC50 in the experiment on HCT-116 cells (setting [1]) is 120 µg/mL (≈ 491 µM); with HCT-116 cells (setting [2]), 180 µg/mL (≈ 737 µM); with Jurkat cells (setting [3]), 100 µg/mL (≈ 409 µM); with Jurkat cells (setting [4]), 200 µg/mL (≈ 819 µM). In addition, the “Selectivity IC50(col) /IC50(bleo)” value with HCT-116 cells stood at 2. The molecule also showed a selectivity in the experiment on Jurkat cells of 2.

Regarding `C=C(C(=O)O)C(CCCCCC(=O)OC)C(=O)O` (centres unmarked) [B], the IC50 in the experiment with HCT-116 cells (setting [1]) is 120 µg/mL (≈ 465 µM); in the experiment with HCT-116 cells (setting [2]), 180 µg/mL (≈ 697 µM); with Jurkat cells (setting [3]), 100 µg/mL (≈ 387 µM); in the experiment on Jurkat cells (setting [4]), 200 µg/mL (≈ 774 µM). In the experiment on HCT-116 cells, the “Selectivity IC50(col) /IC50(bleo)” value amounted to 2. Moreover, the selectivity with Jurkat cells is on record as 2.

For `C=C(C(=O)O)C(CCCCCC(=O)OCC)C(=O)O` (centres unmarked) [C], the IC50 was 120 µg/mL (≈ 441 µM) in the experiment with HCT-116 cells (setting [1]), 180 µg/mL (≈ 661 µM) with HCT-116 cells (setting [2]), 100 µg/mL (≈ 367 µM) in the experiment with Jurkat cells (setting [3]) and 200 µg/mL (≈ 734 µM) with Jurkat cells (setting [4]). Besides, the “Selectivity IC50(col) /IC50(bleo)” value with HCT-116 cells is given as 2. Also, the selectivity in the experiment on Jurkat cells is reported as 2.

Take `C=C(C(=O)O)C(CCCCCC(=O)OC)C(=O)OC` (centres unmarked) [D]: the “differences in a concentration ratio (IC50 (col) / IC50 (bleo))” value with HCT-116 cells is listed as 4 fold. The IC50 in the experiment with HCT-116 cells (setting [1]) stood at 25 µg/mL (≈ 91.8 µM); in the experiment with HCT-116 cells (setting [2]), 100 µg/mL (≈ 367 µM); in the experiment with Jurkat cells (setting [3]), 25 µg/mL (≈ 91.8 µM); in the experiment on Jurkat cells (setting [5]), 25 µg/mL (≈ 91.8 µM); in the experiment on Jurkat cells (setting [4]), 175 µg/mL (≈ 643 µM); in the experiment with Jurkat cells (setting [6]), 175 µg/mL (≈ 643 µM). The “Selectivity IC50(col) /IC50(bleo)” value with HCT-116 cells is reported as 7. In addition, the “differences between both concentrations” value with Jurkat cells was 7 fold. In addition, in the experiment with Jurkat cells, the selectivity was 7.

As for `C=C(C(=O)O)C(CCCCCCCC(=O)OC)C(=O)O` (centres unmarked) [E], the “differences in a concentration ratio (IC50 (col) / IC50 (bleo))” value with HCT-116 cells is reported as 10 fold. Besides, the IC50 with HCT-116 cells (setting [1]) is 2 µg/mL (≈ 6.99 µM); in the experiment on HCT-116 cells (setting [2]), 20 µg/mL (≈ 69.9 µM); in the experiment on Jurkat cells (setting [3]), 1.2 µg/mL (≈ 4.19 µM); with Jurkat cells (setting [5]) it was 1.2 µg/mL (≈ 4.19 µM); with Jurkat cells (setting [4]), 10 µg/mL (≈ 34.9 µM); in the experiment on Jurkat cells (setting [6]), 10 µg/mL (≈ 34.9 µM). Further, in the experiment on HCT-116 cells, the “Selectivity IC50(col) /IC50(bleo)” value came out at 8. Also, in the experiment with Jurkat cells, the “differences between both concentrations” value was 8 fold. Also, the selectivity in the experiment on Jurkat cells is given as 8.

As for `C=C(C(=O)O)C(CCCC(=O)OCC)C(=O)O` (centres unmarked) [F], the IC50 in the experiment on HCT-116 cells (setting [1]) was found to be 100 µg/mL (≈ 409 µM); in the experiment with HCT-116 cells (setting [2]) it was 180 µg/mL (≈ 737 µM); in the experiment on Jurkat cells (setting [3]), 100 µg/mL (≈ 409 µM); in the experiment with Jurkat cells (setting [4]), 200 µg/mL (≈ 819 µM). Besides, the “Selectivity IC50(col) /IC50(bleo)” value with HCT-116 cells was 2. Besides, the selectivity in the experiment with Jurkat cells is recorded as 2.
